{"source": "ChEMBL document CHEMBL5113390", "about": "“Design, synthesis and antitumor evaluation of novel 1H-indole-2-carboxylic acid derivatives targeting 14-3-3η protein” (Eur J Med Chem, 2022)", "key": {"[1]": {"biological_target": "T1, 14-3-3 protein eta (Homo sapiens) (UniProt Q04917)", "T1 sequence (whole entry)": "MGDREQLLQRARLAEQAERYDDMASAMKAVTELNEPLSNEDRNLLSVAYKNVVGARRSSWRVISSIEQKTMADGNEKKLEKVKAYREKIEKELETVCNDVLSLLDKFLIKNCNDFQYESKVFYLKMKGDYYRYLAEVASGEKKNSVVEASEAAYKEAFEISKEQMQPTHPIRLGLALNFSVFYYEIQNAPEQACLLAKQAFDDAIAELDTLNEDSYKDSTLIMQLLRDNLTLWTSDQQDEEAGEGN", "assay": "Inhibition of 14-3-3 eta in human Hep3B cells assessed as reduction in AKT phosphorylation at T308 residue measured after 24 hrs by western blot analysis", "type": "cell-based", "conditions": "dose 0.5-5 µM, DDE = dose-dependent effect"}, "[2]": {"system": "Hep 3B2", "assay": "Induction of cell cycle arrest in human Hep3B cells assessed as accumulation at G2/M phase at 5 uM incubated for 48 hrs by flow cytometry analysis (reference value: 8.59 %)", "type": "functional"}, "[3]": {"system": "Hep 3B2", "assay": "Induction of cell cycle arrest in human Hep3B cells assessed as accumulation at G2/M phase at 1 uM incubated for 48 hrs by flow cytometry analysis (reference value: 8.59 %)", "type": "functional"}, "[4]": {"system": "Hep 3B2", "assay": "Induction of apoptosis in human Hep3B cells assessed as upregulation of cleaved PARP expression at 5 to 20 uM measured after 48 hrs by Western blot analysis", "type": "functional, cell-based", "conditions": "dose 5-20 µM"}, "[5]": {"assay": "Metabolic stability in human liver microsomes assessed as intrinsic clearance", "type": "ADME, Microsome", "conditions": "read-out: CLH"}, "[6]": {"system": "Hep 3B2", "assay": "Induction of apoptosis in human Hep3B cells assessed as late apoptotic cells at 1 uM measured after 48 hrs by Annexin V/FITC-PI staining based flow cytometry assay (reference value: 3.14%)", "type": "functional"}, "[7]": {"system": "Hep 3B2", "assay": "Induction of apoptosis in human Hep3B cells assessed as necrotic cells at 10 uM measured after 48 hrs by Annexin V/FITC-PI staining based flow cytometry assay (reference value: 0.12%)", "type": "functional"}, "[8]": {"system": "Hep 3B2", "assay": "Induction of cell cycle arrest in human Hep3B cells assessed as accumulation at S phase at 10 uM incubated for 48 hrs by flow cytometry analysis (reference value: 30.56 %)", "type": "functional"}, "[9]": {"system": "Hep 3B2", "assay": "Antiproliferative activity against human Hep3B cells assessed as reduction in cell viability incubated for 72 hrs by MTT assay", "type": "functional, cell-based"}, "[10]": {"system": "Hep 3B2", "assay": "Induction of cell cycle arrest in human Hep3B cells assessed as accumulation at G0/G1 phase at 5 uM incubated for 48 hrs by flow cytometry analysis (reference value: 60.85 %)", "type": "functional"}, "[11]": {"system": "Hep 3B2", "assay": "Induction of cell cycle arrest in human Hep3B cells assessed as accumulation at G0/G1 phase at 10 uM incubated for 48 hrs by flow cytometry analysis (reference value: 60.85 %)", "type": "functional"}, "[12]": {"system": "Hep 3B2", "assay": "Induction of apoptosis in human Hep3B cells assessed as early apoptotic cells at 5 uM measured after 48 hrs by Annexin V/FITC-PI staining based flow cytometry assay (reference value: 6.65%)", "type": "functional"}, "[13]": {"system": "Hep 3B2", "assay": "Induction of apoptosis in human Hep3B cells assessed as viable cells at 10 uM measured after 48 hrs by Annexin V/FITC-PI staining based flow cytometry assay (reference value: 90.09%)", "type": "functional", "conditions": "read-out: Activity"}, "[14]": {"system": "Hep 3B2", "assay": "Induction of cell cycle arrest in human Hep3B cells assessed as accumulation at S phase at 1 uM incubated for 48 hrs by flow cytometry analysis (reference value: 30.56 %)", "type": "functional"}, "[15]": {"system": "Hep 3B2", "assay": "Downregulation of AKT expression in human Hep3B cells measured after 24 hrs by western blot analysis", "type": "functional, cell-based", "conditions": "dose 0.5-5 µM, DDE = dose-dependent effect"}, "[16]": {"assay": "Metabolic stability in rat liver microsomes assessed as half life", "type": "ADME, Microsome"}, "[17]": {"system": "Hep 3B2", "assay": "Induction of apoptosis in human Hep3B cells assessed as late apoptotic cells at 10 uM measured after 48 hrs by Annexin V/FITC-PI staining based flow cytometry assay (reference value: 3.14%)", "type": "functional"}, "[18]": {"system": "Hep 3B2", "assay": "Induction of apoptosis in human Hep3B cells assessed as necrotic cells at 2.5 uM measured after 48 hrs by Annexin V/FITC-PI staining based flow cytometry assay (reference value: 0.12%)", "type": "functional"}, "[19]": {"system": "Hep 3B2", "assay": "Induction of apoptosis in human Hep3B cells assessed as late apoptotic cells at 2.5 uM measured after 48 hrs by Annexin V/FITC-PI staining based flow cytometry assay (reference value: 3.14%)", "type": "functional"}, "[20]": {"biological_target": "Voltage-gated inwardly rectifying potassium channel KCNH2 (Homo sapiens, UniProt Q12809)", "sequence (Q12809 whole entry)": "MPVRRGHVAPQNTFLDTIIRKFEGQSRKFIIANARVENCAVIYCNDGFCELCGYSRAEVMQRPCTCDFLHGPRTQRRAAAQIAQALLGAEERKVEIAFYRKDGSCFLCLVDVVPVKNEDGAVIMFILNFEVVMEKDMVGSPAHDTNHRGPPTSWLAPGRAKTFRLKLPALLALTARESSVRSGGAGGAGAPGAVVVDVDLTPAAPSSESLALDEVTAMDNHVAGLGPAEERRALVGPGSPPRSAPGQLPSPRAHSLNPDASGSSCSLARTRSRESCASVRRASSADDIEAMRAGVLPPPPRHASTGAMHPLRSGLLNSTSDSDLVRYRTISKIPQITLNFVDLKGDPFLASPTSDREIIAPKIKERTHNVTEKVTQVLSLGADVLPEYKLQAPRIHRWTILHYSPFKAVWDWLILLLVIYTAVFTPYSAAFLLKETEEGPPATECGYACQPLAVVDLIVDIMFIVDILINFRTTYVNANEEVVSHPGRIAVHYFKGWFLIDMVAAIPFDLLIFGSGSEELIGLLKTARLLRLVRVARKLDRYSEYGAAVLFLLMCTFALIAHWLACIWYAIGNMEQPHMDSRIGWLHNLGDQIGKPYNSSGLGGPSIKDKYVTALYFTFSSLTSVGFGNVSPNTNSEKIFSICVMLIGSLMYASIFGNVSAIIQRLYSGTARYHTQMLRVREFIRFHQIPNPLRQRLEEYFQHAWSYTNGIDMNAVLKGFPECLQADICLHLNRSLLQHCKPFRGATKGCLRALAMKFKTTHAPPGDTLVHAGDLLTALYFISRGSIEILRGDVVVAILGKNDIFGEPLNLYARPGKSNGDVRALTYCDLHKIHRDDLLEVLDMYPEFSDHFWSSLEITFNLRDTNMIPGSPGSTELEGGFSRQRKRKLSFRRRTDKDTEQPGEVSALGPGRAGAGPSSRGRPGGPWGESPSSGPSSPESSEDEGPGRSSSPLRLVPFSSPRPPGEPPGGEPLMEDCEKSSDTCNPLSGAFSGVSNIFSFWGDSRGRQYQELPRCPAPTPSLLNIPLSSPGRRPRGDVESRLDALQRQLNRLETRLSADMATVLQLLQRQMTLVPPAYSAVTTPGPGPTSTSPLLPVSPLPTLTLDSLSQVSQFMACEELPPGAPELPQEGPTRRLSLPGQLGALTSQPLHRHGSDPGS", "assay": "Inhibition of hERG by automated patch clamp analysis", "type": "toxicity"}, "[21]": {"system": "Hep 3B2", "assay": "Induction of cell cycle arrest in human Hep3B cells assessed as accumulation at G2/M phase at 10 uM incubated for 48 hrs by flow cytometry analysis (reference value: 8.59 %)", "type": "functional"}, "[22]": {"assay": "Metabolic stability in rat liver microsomes assessed as intrinsic clearance", "type": "ADME, Microsome", "conditions": "read-out: CLH"}}, "note": "pIC50: −log10 of the molar value. The source made the active and inactive calls. The calls are words filed in the database; no cut-off is given here.", "data": [{"compound": "COc1cccc(CNCc2c(C(=O)O)n(Cc3ccc(C)cc3)c3cc(C(C)C)ccc23)c1", "values": [{"measurement": "inhibition", "setting": "[1]", "result": "Dde"}, {"measurement": "Activity", "setting": "[2]", "result": 3.79, "unit": "%"}, {"measurement": "Activity", "setting": "[3]", "result": 5.79, "unit": "%"}, {"measurement": "Activity", "setting": "[4]", "result": "Active"}, {"measurement": "CLint scaled", "setting": "[5]", "result": 238, "unit": "mL/min/kg"}, {"measurement": "Activity", "setting": "[6]", "result": 4.86, "unit": "%"}, {"measurement": "Activity", "setting": "[7]", "result": 2.82, "unit": "%"}, {"measurement": "Activity", "setting": "[8]", "result": 29.71, "unit": "%"}, {"measurement": "pIC50", "setting": "[9]", "result": 5.39}, {"measurement": "Activity", "setting": "[10]", "result": 58.48, "unit": "%"}, {"measurement": "Activity", "setting": "[11]", "result": 67.7, "unit": "%"}, {"measurement": "Activity", "setting": "[12]", "result": 11.22, "unit": "%"}, {"measurement": "viability at 10 µM", "setting": "[13]", "result": 61.9, "unit": "%"}, {"measurement": "Activity", "setting": "[14]", "result": 35.59, "unit": "%"}, {"measurement": "inhibition", "setting": "[15]", "result": "Dde"}, {"measurement": "half-life", "setting": "[16]", "result": 9.25, "unit": "min"}, {"measurement": "Activity", "setting": "[17]", "result": 13.52, "unit": "%"}, {"measurement": "Activity", "setting": "[18]", "result": 0.27, "unit": "%"}, {"measurement": "Activity", "setting": "[19]", "result": 5.02, "unit": "%"}, {"measurement": "pIC50", "setting": "[20]", "result": 4.46}, {"measurement": "Activity", "setting": "[21]", "result": 2.59, "unit": "%"}, {"measurement": "CLint scaled", "setting": "[22]", "result": 269, "unit": "mL/min/kg"}]}]}
